Data taken from paper PMC7064328 (Environmental Health Perspectives, 2020).

Tests used:
Pregnant CD-1 mice = assay: Clinical chemistry of dam serum and urine; assay type: in vivo, mouse (CD-1); conditions: for ALB / ALP / ALT / AST / BUN / Chol / Cre / Glu / HDL / LDL / SDH / TBA / TP / Trig: dam serum; for Ucrea: dam urine
Experimental: Dam livers, kidneys, and placentas were trimmed and embedded by the NIEHS Mouse Embryo Phenotyping Core. Tissues collected at necropsy were fixed in 4% PFA for 72 h and paraffin embedded, and 5-μm sections were prepared and stained with hematoxylin and eosin (H&E). Pathology was evaluated and a pathology review conducted by S.A.E. Diplomate American College of Veterinary Pathologists (DACVP). Pathology reviews were conducted as an informed approach analysis [e.g., nonblinded analysis; see Sills et al. ([2019])]. Select tissue slides were scanned using the AT2 Scanner (Aperio). Images were then captured for publication using the ImageScope software; version 12.3.0.5056 (Aperio). Serum and urine obtained from dams in Block 2 were analyzed using the AU480 clinical chemistry analyzer (Beckman Coulter Inc.). Reagents and calibration standards used to measure alkaline phosphatase (ALP), alanine aminotransferase (ALT), aspartate aminotransferase (AST), blood urea nitrogen (BUN), serum creatinine, urine creatinine, glucose (Glu), total protein (TP), triglyceride (Trig), high-density lipoprotein (HDL), cholesterol (Chol), and albumin (ALB) were purchased from Beckman Coulter Inc. Reagents for sorbitol dehydrogenase (SDH), total bile acid (TBA), and micro-TP were purchased from Sekisui Diagnostics. The reagent used to measure low-density lipoprotein (LDL) was purchased form Diazyme Laboratories.

embryo–placenta unit = assay: Embryo/placental growth metrics (mixed-effect models); assay type: in vivo, mouse (CD-1)
Excerpt: From each uterus, first, viable embryos and their matched placentas were collected in succession within a horn and immediately snap frozen ( n=2–5 per litter ), and subsequent embryos were collected for growth measurements ( n=2–11 per litter ). Additional placentas were collected and placed in 4% paraformaldehyde (PFA) for histological analysis (Block 2 only). Amniotic fluid was collected by needle aspiration from litters euthanized at E11.5 and snap frozen in liquid nitrogen. Embryo livers were collected from litters euthanized at E17.5 and snap frozen in liquid nitrogen. Dam livers were weighed, a portion of the left lateral lobe was placed in 4% PFA for histology, and another portion of the same lobe was snap frozen in liquid nitrogen. A third liver section was obtained from Block 2 dams and fixed in McDowell and Trump’s fixative for electron microscopy (EM). Gross lesions were collected when observed and placed in 4% PFA for histology. Dam kidneys were removed, a cross section was prepared from the right kidney, a longitudinal section was prepared from the left kidney, and both sections were fixed in 4% PFA for histological analysis.
Gross observations were recorded at necropsy. Embryo sex was determined by polymerase chain reaction (PCR) amplification of the Sry gene (forward, 5′-[…]-3′, and reverse, 3′-[…]-5′) using a snipped portion of tissue (TransnetYX®, Inc.). Embryos and their placentas were weighed separately as wet tissue. Images of embryos were obtained on a Leica Z16 APO imaging scope, and embryo length was measured as snout-to-rump distance using FIJI ([Schindelin et al. 2012]) and Zen 2 Blue (Zeiss).
Embryo and placental metrics were analyzed using mixed-effect models and included a priori fixed effects of treatment group and litter size and a random-effects term for the dam using the lme4 package. Embryo and placental metrics included embryo weight, embryo length, placental weight, and embryo:placenta weight ratios, a meaningful predictor of fetal birth outcomes in humans ([Hayward et al. 2016]). To account for potential introduction of random effects, the study block (Block 1 or Block 2) and experimenter handling of embryo/placental tissues (Experimenter A or Experimenter B) were included as additional random effects. Models were fit in a stepwise procedure for random effects, and final models included treatment group and litter size as fixed effects using the lmerTest package ([Kuznetsova et al. 2017]). All final models included dam as a random effect but were allowed to vary in the inclusion of experimenter and experimental block random effects based on likelihood ratio test results. Point estimates and 95% CIs were determined from the final model using the Wald method. The number of individual observations for each outcome (embryo weight, placenta weight, and embryo:placenta weight ratio) and the number of litters evaluated in the mixed-effect models are shown in Table S1.

O=C(O)C(F)(F)C(F)(F)C(F)(F)C(F)(F)C(F)(F)C(F)(F)C(F)(F)F [PFOA, Perfluorooctanoic acid]
Dam serum Trig lowered vs controls (Pregnant CD-1 mice; E11.5, 1 mg/kg/d): 37%
Dam serum Trig lowered vs controls (Pregnant CD-1 mice; E11.5, 5 mg/kg/d): 58%
Serum Glu lower relative to controls (Pregnant CD-1 mice; E11.5, 5 mg/kg/d, p=0.06): 20%
Dam serum Trig lower vs controls (Pregnant CD-1 mice; E17.5, 5 mg/kg/d): 66%
LDL lower vs controls (Pregnant CD-1 mice; E17.5, 5 mg/kg/d): 50%
ALT increase relative to controls (Pregnant CD-1 mice; Table 2 (E11.5), 5 mg/kg/d, not statistically significant): 172%
ALB (Pregnant CD-1 mice; E11.5, 1 mg/kg/d): 2.42±0.22 (5) g/dL
ALP (Pregnant CD-1 mice; E11.5, 1 mg/kg/d): 54.6±4.4 (5) U/L
ALT (Pregnant CD-1 mice; E11.5, 1 mg/kg/d): 28.8±11.5 (5) U/L
AST (Pregnant CD-1 mice; E11.5, 1 mg/kg/d): 144.6±167.6 (5) U/L
BUN (Pregnant CD-1 mice; E11.5, 1 mg/kg/d): 15.0±2.7 (5) mg/dL
Chol (Pregnant CD-1 mice; E11.5, 1 mg/kg/d): 68.8±18.0 (5) mg/dL
Cre (Pregnant CD-1 mice; E11.5, 1 mg/kg/d): 0.2±0.05 (5) mg/dL
Glu (Pregnant CD-1 mice; E11.5, 1 mg/kg/d): 278.4±27.8 (5) mg/dL
HDL (Pregnant CD-1 mice; E11.5, 1 mg/kg/d): 34.8±10.9 (5) mg/dL
LDL (Pregnant CD-1 mice; E11.5, 1 mg/kg/d): 12.2±1.9 (5) mg/dL
SDH (Pregnant CD-1 mice; E11.5, 1 mg/kg/d): 8.4±7.8 (5) U/L
TBA (Pregnant CD-1 mice; E11.5, 1 mg/kg/d): 1.5±0.58 (4) μM/L
TP (Pregnant CD-1 mice; E11.5, 1 mg/kg/d): 4.04±0.3 (5) g/dL
Trig (Pregnant CD-1 mice; E11.5, 1 mg/kg/d): 130.4±16.2 (5) mg/dL
ALB (Pregnant CD-1 mice; E11.5, 5 mg/kg/d): 2.36±0.21 (5) g/dL
ALP (Pregnant CD-1 mice; E11.5, 5 mg/kg/d): 56.6±35.6 (5) U/L
ALT (Pregnant CD-1 mice; E11.5, 5 mg/kg/d): 70.8±16.2 (5) U/L
AST (Pregnant CD-1 mice; E11.5, 5 mg/kg/d): 92.6±20.3 (5) U/L
BUN (Pregnant CD-1 mice; E11.5, 5 mg/kg/d): 15.8±1.3 (5) mg/dL
Chol (Pregnant CD-1 mice; E11.5, 5 mg/kg/d): 69.4±9.9 (5) mg/dL
Cre (Pregnant CD-1 mice; E11.5, 5 mg/kg/d): 0.18±0.03 (5) mg/dL
Glu (Pregnant CD-1 mice; E11.5, 5 mg/kg/d): 220.4±22.1 (5) mg/dL
HDL (Pregnant CD-1 mice; E11.5, 5 mg/kg/d): 42.6±4.0 (5) mg/dL
LDL (Pregnant CD-1 mice; E11.5, 5 mg/kg/d): 10.6±1.5 (5) mg/dL
SDH (Pregnant CD-1 mice; E11.5, 5 mg/kg/d): 12.4±8.3 (5) U/L
TBA (Pregnant CD-1 mice; E11.5, 5 mg/kg/d): 2.0±0.0 (5) μM/L
TP (Pregnant CD-1 mice; E11.5, 5 mg/kg/d): 3.78±0.22 (5) g/dL
Trig (Pregnant CD-1 mice; E11.5, 5 mg/kg/d): 86.4±15.8 (5) mg/dL
ALB (Pregnant CD-1 mice; E17.5, 1 mg/kg/d): 2.04±0.09 (5) g/dL
ALP (Pregnant CD-1 mice; E17.5, 1 mg/kg/d): 50.2±4.2 (5) U/L
ALT (Pregnant CD-1 mice; E17.5, 1 mg/kg/d): 7.0±4.3 (5) U/L
AST (Pregnant CD-1 mice; E17.5, 1 mg/kg/d): 73.0±14.0 (5) U/L
BUN (Pregnant CD-1 mice; E17.5, 1 mg/kg/d): 16.4±1.7 (5) mg/dL
Chol (Pregnant CD-1 mice; E17.5, 1 mg/kg/d): 83.8±20.0 (5) mg/dL
Cre (Pregnant CD-1 mice; E17.5, 1 mg/kg/d): 0.2±0.01 (5) mg/dL
Glu (Pregnant CD-1 mice; E17.5, 1 mg/kg/d): 121.0±17.3 (5) mg/dL
HDL (Pregnant CD-1 mice; E17.5, 1 mg/kg/d): 37.2±6.2 (5) mg/dL
LDL (Pregnant CD-1 mice; E17.5, 1 mg/kg/d): 24.0±10.7 (5) mg/dL
SDH (Pregnant CD-1 mice; E17.5, 1 mg/kg/d): 3.4±6.1 (5) U/L
TBA (Pregnant CD-1 mice; E17.5, 1 mg/kg/d): 3.0±1.2 (5) μM/L
TP (Pregnant CD-1 mice; E17.5, 1 mg/kg/d): 3.9±0.11 (5) g/dL
Trig (Pregnant CD-1 mice; E17.5, 1 mg/kg/d): 364.0±272.9 (5) mg/dL
ALB (Pregnant CD-1 mice; E17.5, 5 mg/kg/d): 1.53±0.27 (6) g/dL
ALP (Pregnant CD-1 mice; E17.5, 5 mg/kg/d): 74.8±23.8 (6) U/L
ALT (Pregnant CD-1 mice; E17.5, 5 mg/kg/d): 16.8±7.7 (6) U/L
AST (Pregnant CD-1 mice; E17.5, 5 mg/kg/d): 172.2±63.1 (6) U/L
BUN (Pregnant CD-1 mice; E17.5, 5 mg/kg/d): 18.7±5.3 (6) mg/dL
Chol (Pregnant CD-1 mice; E17.5, 5 mg/kg/d): 68.5±16.4 (6) mg/dL
Cre (Pregnant CD-1 mice; E17.5, 5 mg/kg/d): 0.16±0.06 (6) mg/dL
Glu (Pregnant CD-1 mice; E17.5, 5 mg/kg/d): 112.0±15.8 (6) mg/dL
HDL (Pregnant CD-1 mice; E17.5, 5 mg/kg/d): 38.8±11.2 (6) mg/dL
LDL (Pregnant CD-1 mice; E17.5, 5 mg/kg/d): 11.0±3.0 (5) mg/dL
SDH (Pregnant CD-1 mice; E17.5, 5 mg/kg/d): 24.3±11.2 (6) U/L
TBA (Pregnant CD-1 mice; E17.5, 5 mg/kg/d): 8.0±7.9 (6) μM/L
TP (Pregnant CD-1 mice; E17.5, 5 mg/kg/d): 2.8±0.39 (6) g/dL
Trig (Pregnant CD-1 mice; E17.5, 5 mg/kg/d): 159.0±65.5 (6) mg/dL
Ucrea (Pregnant CD-1 mice; E11.5, 1 mg/kg/d): 92.0±13.1 (4) mg/dL
Ucrea (Pregnant CD-1 mice; E11.5, 5 mg/kg/d): 50.1±33.8 (4) mg/dL
Ucrea (Pregnant CD-1 mice; E17.5, 1 mg/kg/d): 24.7±23.1 (2) mg/dL
Ucrea (Pregnant CD-1 mice; E17.5, 5 mg/kg/d): 11.5±5.9 (3) mg/dL
Embryo weight decrease relative to controls (embryo–placenta unit; 5 mg/kg/d): 9.4%
Embryo length, adjusted estimate (95% CI) (embryo–placenta unit; E11.5, 1 mg/kg/d): 17.5 (14.5, 20.4) mm
Embryo weight, adjusted estimate (95% CI) (embryo–placenta unit; E11.5, 1 mg/kg/d): 44.7 (11.1, 78.2) mg
Embryo:Placental Weight Ratio, adjusted estimate (95% CI) (embryo–placenta unit; E11.5, 1 mg/kg/d): 1.19 (0.62, 1.76)
Placental weight, adjusted estimate (95% CI) (embryo–placenta unit; E11.5, 1 mg/kg/d): 30.5 (-3.8, 64.7) mg
Embryo length, adjusted estimate (95% CI) (embryo–placenta unit; E11.5, 5 mg/kg/d): 18.5 (15.6, 21.4) mm
Embryo weight, adjusted estimate (95% CI) (embryo–placenta unit; E11.5, 5 mg/kg/d): 45.3 (11.8, 78.7) mg
Embryo:Placental Weight Ratio, adjusted estimate (95% CI) (embryo–placenta unit; E11.5, 5 mg/kg/d): 1.21 (0.64, 1.77)
Placental weight, adjusted estimate (95% CI) (embryo–placenta unit; E11.5, 5 mg/kg/d): 31.2 (-2.9, 65.3) mg
Embryo length, adjusted estimate (95% CI) (embryo–placenta unit; E17.5, 1 mg/kg/d): 33.6 (29.6, 37.6) mm
Embryo weight, adjusted estimate (95% CI) (embryo–placenta unit; E17.5, 1 mg/kg/d): 1350.7 (1091.9, 1609.4) mg
Embryo:Placental Weight Ratio, adjusted estimate (95% CI) (embryo–placenta unit; E17.5, 1 mg/kg/d): 11.1 (8.0, 14.3)
Placental weight, adjusted estimate (95% CI) (embryo–placenta unit; E17.5, 1 mg/kg/d): 129.7 (98.2, 161.2) mg
Embryo BW lower than vehicle control embryos (mixed-effect model estimate) (embryo–placenta unit; E17.5, 5 mg/kg/d): 129 mg
Embryo length, adjusted estimate (95% CI) (embryo–placenta unit; E17.5, 5 mg/kg/d): 31.2 (27.2 35.3) mm
Embryo weight, adjusted estimate (95% CI) (embryo–placenta unit; E17.5, 5 mg/kg/d): 1249.5 (991.0, 1508.0) mg
Embryo:Placental Weight Ratio, adjusted estimate (95% CI) (embryo–placenta unit; E17.5, 5 mg/kg/d): 8.5 (5.4, 11.6)
Estimated increase in placental weight relative to controls (embryo–placenta unit; E17.5, 5 mg/kg/d): 21 mg
Placental weight, adjusted estimate (95% CI) (embryo–placenta unit; E17.5, 5 mg/kg/d): 151.9 (120.5, 183.4) mg
Shift in embryo weight (embryo–placenta unit; E17.5, 5 mg/kg/d): -0.129 g
